The record followed here is EP4603105A1, “PHARMACEUTICAL COMPOSITION CONTAINING CYCLIC COMPOUND HAVING SELECTIVE KRAS INHIBITORY EFFECT AGAINST HRAS AND NRAS” (CHUGAI SEIYAKU KABUSHIKI KAISHA, priority 2022, dated 2024).

Each structure is given as a SMILES string.

Assay [1] relates to human lung cancer strain NCI-H441. Description: NCI-H441 cell proliferation inhibitory activity (CellTiter-Glo, 4 days). In kind it is cell-based. Particulars: 50% proliferation inhibitory concentration, four days, read-out: NCl-H441 IC50. The procedure, abridged:
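Proliferation was scored by […] measured after the reagent was added to cultures kept at 37°C in 5% carbon dioxide.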

Assay [2] deals with HRAS wild-type protein (Homo sapiens, UniProt P01112). The assay is described as follows: Binding to HRAS by surface plasmon resonance (SPR), KD and KD ratio to KRAS. Particulars: ratio of KD with respect to HRAS wild-type protein to KD with respect to KRAS. The procedure, abridged:
(§1)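 Compound binding is evaluated by SPR single-cycle kinetics, with concentrations added intermittently from low to high for 75 s each. Target surfaces carry GDP-loaded biotinylated Avi-RAS at about 100–300 RU, regenerated after each cycle; temperature 30°C. A 1:1 binding model gives KD.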
A general note: In SPR one partner is held on a chip, and binding of the other changes the refractive index at the surface.

In assay [3] the target is GDP-bound KRAS wild-type protein (Homo sapiens, UniProt P01116). The assay is described as follows: Binding to KRAS by surface plasmon resonance (SPR), dissociation constant KD. Conditions: Single Cycle Kinetics, 1:1 binding model. In outline: as §1
Assay [4] addresses GDP-bound NRAS wild-type protein (Homo sapiens, UniProt P01111). The assay is described as follows: Binding to NRAS by surface plasmon resonance (SPR), KD and KD ratio to KRAS. Conditions: ratio of KD with respect to GDP-bound NRAS wild-type protein to KD with respect to KRAS. In outline:
as §1

GDP-bound KRAS wild-type protein, sequence (P01116 1-188 isoform P01116-2): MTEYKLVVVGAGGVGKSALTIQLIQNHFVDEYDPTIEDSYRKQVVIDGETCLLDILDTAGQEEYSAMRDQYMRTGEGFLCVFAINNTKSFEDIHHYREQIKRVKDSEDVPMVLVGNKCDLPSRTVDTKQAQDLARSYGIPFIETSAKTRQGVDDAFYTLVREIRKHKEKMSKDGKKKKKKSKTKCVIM
GDP-bound NRAS wild-type protein, sequence (P01111 whole entry): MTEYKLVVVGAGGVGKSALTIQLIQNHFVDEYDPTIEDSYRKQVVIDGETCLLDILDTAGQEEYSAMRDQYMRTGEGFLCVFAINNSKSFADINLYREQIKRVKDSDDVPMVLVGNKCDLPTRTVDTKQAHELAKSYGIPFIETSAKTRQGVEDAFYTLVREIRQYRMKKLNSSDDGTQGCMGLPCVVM
HRAS wild-type protein, sequence (P01112 whole entry): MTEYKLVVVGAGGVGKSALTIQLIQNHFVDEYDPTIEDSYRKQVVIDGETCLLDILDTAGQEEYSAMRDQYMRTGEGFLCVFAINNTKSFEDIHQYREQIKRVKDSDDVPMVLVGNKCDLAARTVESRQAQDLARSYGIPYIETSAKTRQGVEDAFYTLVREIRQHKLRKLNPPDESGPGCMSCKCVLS

`CCO[C@@H]1C[C@H]2C(=O)NC3(CCCC3)C(=O)N(C)[C@@H](C3CCCC3)C(=O)N(C)[C@H](C(=O)N3CCOCC3)CC(=O)N(C)[C@@H](CC)C(=O)N[C@@H]([C@@H](C)CC)C(=O)N(C)CC(=O)N(C)[C@H]3C[C@@H](C)[C@@H](C)CN(C3=O)[C@@H](Cc3ccc(C(F)(F)F)cc3)C(=O)N(C)CC(=O)N[C@@H](CCc3ccc(C(F)(F)F)c(Cl)c3)C(=O)N2C1` [PP1359]: the IC50 (usually the concentration needed to halve the response being measured) in assay [1] is 3.2 nM. In addition, the “HRAS /KRAS” value in assay [2] was “B (a compound having 3 or more and less than 10 is denoted as B)”. For the same compound, the Kd (commonly the free concentration of one partner at which half of the binding sites on the other are occupied at equilibrium, for simple one-to-one binding) in assay [3] was determined as 0.068 nM. Moreover, in assay [4], the “NRAS /KRAS” value is “A (a compound having 10 or more and less than 20 is denoted as A)”.
With `CCO[C@@H]1C[C@H]2C(=O)NC3(CCC3)C(=O)N(C)[C@@H](C3CCCC3)C(=O)N(C)[C@H](C(=O)N3CCOCC3)CC(=O)N(C)[C@@H](CC)C(=O)N[C@@H]([C@@H](C)CC)C(=O)N(C)CC(=O)N(C)[C@H]3C[C@@H](C)[C@@H](C)CN(C3=O)[C@@H](Cc3ccc(C(F)(F)F)cc3)C(=O)N(C)CC(=O)N[C@@H](CCc3ccc(C(F)(F)F)c(Cl)c3)C(=O)N2C1` [PP1360], the IC50 in assay [1] turned out to be 4.9 nM. Moreover, in assay [2], the “HRAS /KRAS” value is “B (a compound having 3 or more and less than 10 is denoted as B)”. In assay [3], this compound showed a Kd of 0.055 nM. The “NRAS /KRAS” value in assay [4] was “A (a compound having 10 or more and less than 20 is denoted as A)”.
Regarding `CCO[C@@H]1C[C@H]2C(=O)NC3(CCC3)C(=O)N(C)[C@@H](C3CCCC3)C(=O)N(C)[C@H](C(=O)N3CCOCC3)CC(=O)N(C)[C@@H](CC(C)C)C(=O)N[C@@H]([C@@H](C)CC)C(=O)N3CC[C@H]3C(=O)N(C)[C@H]3C[C@@H](C)[C@@H](C)CN(C3=O)[C@@H](Cc3ccc(C(F)(F)F)cc3)C(=O)N(C)CC(=O)N[C@@H](CCc3ccc(C(F)(F)F)c(Cl)c3)C(=O)N2C1` [PP1361], in assay [1], the IC50 came to 6.2 nM. The “HRAS /KRAS” value in assay [2] was “B (a compound having 3 or more and less than 10 is denoted as B)”. The compound also came in with a Kd in assay [3] of 0.15 nM. Besides, in assay [4], the “NRAS /KRAS” value is “A (a compound having 10 or more and less than 20 is denoted as A)”.
Turning to `CCO[C@@H]1C[C@H]2C(=O)NC3(CCCC3)C(=O)N(C)[C@@H](C3CCCC3)C(=O)N(C)[C@H](C(=O)N(C)C)CC(=O)N(C)[C@@H](CC3CC3)C(=O)N[C@@H]([C@@H](C)CC)C(=O)N(C)CC(=O)N(C)[C@H]3C[C@@H](C)[C@@H](C)CN(C3=O)[C@@H](Cc3ccc(C(F)(F)F)cc3)C(=O)N(C)CC(=O)N[C@@H](CCc3ccc(C(F)(F)F)c(Cl)c3)C(=O)N2C1` [PP1362], the IC50 in assay [1] was found to be 3.7 nM. Also, the “HRAS /KRAS” value in assay [2] was “B (a compound having 3 or more and less than 10 is denoted as B)”. For the same compound, the Kd in assay [3] turned out to be 0.037 nM. In addition, in assay [4], the “NRAS /KRAS” value was “A (a compound having 10 or more and less than 20 is denoted as A)”.
With `CC[C@H](C)[C@@H]1NC(=O)[C@H](CC)N(C)C(=O)C[C@@H](C(=O)N2CCOCC2)N(C)C(=O)[C@H](C2CCCC2)N(C)C(=O)C2(CCCC2)NC(=O)[C@@H]2CCCN2C(=O)[C@H](CCc2cc(F)c(C(F)(F)F)c(F)c2)NC(=O)CN(C)C(=O)[C@H](Cc2ccc(C(F)(F)F)cc2)N2C[C@H](C)[C@H](C)C[C@@H](C2=O)N(C)C(=O)CN(C)C1=O` [PP1365], the IC50 in assay [1] was found to be 4.2 nM. Moreover, in assay [2], the “HRAS /KRAS” value was “B (a compound having 3 or more and less than 10 is denoted as B)”. In assay [3], the Kd worked out at 0.13 nM. In addition, in assay [4], the “NRAS /KRAS” value was “A (a compound having 10 or more and less than 20 is denoted as A)”.
As for `CC[C@H](C)[C@@H]1NC(=O)[C@H](CC)N(C)C(=O)C[C@@H](C(=O)N2CCOCC2)N(C)C(=O)[C@H](C2CCCC2)N(C)C(=O)C2(CCC2)NC(=O)[C@@H]2CCCN2C(=O)[C@H](CCc2cc(F)c(C(F)(F)F)c(F)c2)NC(=O)CN(C)C(=O)[C@H](Cc2ccc(C(F)(F)F)cc2)N2C[C@H](C)[C@H](C)C[C@@H](C2=O)N(C)C(=O)CN(C)C1=O` [PP1366], the IC50 in assay [1] amounted to 14 nM. Besides, the “HRAS /KRAS” value in assay [2] was “B (a compound having 3 or more and less than 10 is denoted as B)”. Moreover, the Kd in assay [3] was 0.11 nM. For the same compound, the “NRAS /KRAS” value in assay [4] is “A (a compound having 10 or more and less than 20 is denoted as A)”.
On to `CC[C@H](C)[C@@H]1NC(=O)[C@H](CC(C)C)N(C)C(=O)C[C@@H](C(=O)N2CCOCC2)N(C)C(=O)[C@H](C2CCCC2)N(C)C(=O)C2(CCC2)NC(=O)[C@@H]2CCCN2C(=O)[C@H](CCc2cc(F)c(C(F)(F)F)c(F)c2)NC(=O)CN(C)C(=O)[C@H](Cc2ccc(C(F)(F)F)cc2)N2C[C@H](C)[C@H](C)C[C@@H](C2=O)N(C)C(=O)[C@@H]2CCN2C1=O` [PP1367], for which, in assay [1], the IC50 amounted to 29.3 nM. The “HRAS /KRAS” value in assay [2] was “B (a compound having 3 or more and less than 10 is denoted as B)”. In assay [3], this compound yielded a Kd of 0.34 nM. Besides, the “NRAS /KRAS” value in assay [4] is “A (a compound having 10 or more and less than 20 is denoted as A)”.
With `CC[C@H](C)[C@@H]1NC(=O)[C@H](CC2CC2)N(C)C(=O)C[C@@H](C(=O)N(C)C)N(C)C(=O)[C@H](C2CCCC2)N(C)C(=O)C2(CCCC2)NC(=O)[C@@H]2CCCN2C(=O)[C@H](CCc2cc(F)c(C(F)(F)F)c(F)c2)NC(=O)CN(C)C(=O)[C@H](Cc2ccc(C(F)(F)F)cc2)N2C[C@H](C)[C@H](C)C[C@@H](C2=O)N(C)C(=O)CN(C)C1=O` [PP1368], in assay [1], the IC50 is 2.9 nM. Moreover, in assay [2], the “HRAS /KRAS” value was “B (a compound having 3 or more and less than 10 is denoted as B)”. In addition, the Kd in assay [3] came to 0.061 nM. Also, in assay [4], the “NRAS /KRAS” value is “A (a compound having 10 or more and less than 20 is denoted as A)”.
On to `CCO[C@@H]1C[C@H]2C(=O)NC3(CCCC3)C(=O)N(C)[C@@H](C3CCCC3)C(=O)N(C)[C@H](C(=O)N(C)C)CC(=O)N(C)[C@@H](CC)C(=O)N[C@@H]([C@@H](C)CC)C(=O)N(C)CC(=O)N(C)[C@H]3CC[C@@H](C)CN(C3=O)[C@@H](Cc3ccc(C(F)(F)F)cc3)C(=O)N(C)CC(=O)N[C@@H](CCc3cc(F)c(C(F)(F)F)c(F)c3)C(=O)N2C1` [PP1370], for which the IC50 in assay [1] came out at 2.3 nM. Moreover, in assay [2], the “HRAS /KRAS” value was “C (A compound having a KD ratio of 0.1 or more and less than 3 is denoted as C)”. In assay [3], this compound showed an equilibrium dissociation constant (Kd) of 0.057 nM. In addition, in assay [4], the “NRAS /KRAS” value is “C (A compound having a KD ratio of 0.1 or more and less than 3 is denoted as C)”.
For the compound `CCO[C@@H]1C[C@H]2C(=O)NC3(CCCC3)C(=O)N(C)[C@@H](C3CCCC3)C(=O)N(C)[C@H](C(=O)N3CCOCC3)CC(=O)N(C)[C@@H](CC)C(=O)N[C@@H]([C@@H](C)CC)C(=O)N(C)CC(=O)N(C)[C@H]3CC[C@@H](C)CN(C3=O)[C@@H](Cc3ccc(C(F)(F)F)cc3)C(=O)N(C)CC(=O)N[C@@H](CCc3cc(F)c(C(F)(F)F)c(F)c3)C(=O)N2C1` [PP1371], in assay [1], the IC50 was found to be 5.1 nM. For the same compound, in assay [2], the “HRAS /KRAS” value is “B (a compound having 3 or more and less than 10 is denoted as B)”. Also, in assay [3], the Kd amounted to 0.077 nM. In addition, the “NRAS /KRAS” value in assay [4] was “A (a compound having 10 or more and less than 20 is denoted as A)”.
Take `CCO[C@@H]1C[C@H]2C(=O)NC3(CCC3)C(=O)N(C)[C@@H](C3CCCC3)C(=O)N(C)[C@H](C(=O)N3CCOCC3)CC(=O)N(C)[C@@H](CC)C(=O)N[C@@H]([C@@H](C)CC)C(=O)N(C)CC(=O)N(C)[C@H]3CC[C@@H](C)CN(C3=O)[C@@H](Cc3ccc(C(F)(F)F)cc3)C(=O)N(C)CC(=O)N[C@@H](CCc3cc(F)c(C(F)(F)F)c(F)c3)C(=O)N2C1` [PP1372]: the IC50 in assay [1] was 5 nM. Moreover, the “HRAS /KRAS” value in assay [2] is “B (a compound having 3 or more and less than 10 is denoted as B)”. In assay [3], this compound showed a Kd of 0.078 nM. In addition, in assay [4], the “NRAS /KRAS” value was “B (a compound having 3 or more and less than 10 is denoted as B)”.
